From BindingDB's records for doi:10.1016/j.bmcl.2005.11.067 (Merck Sharp and Dohme Research Laboratories, 2006)

Target: T1, Alpha-1A/Alpha-1B/Alpha-1D adrenergic receptor (Rattus norvegicus, UniProt P15823+P23944+P43140)
T1 sequence (P15823 whole entry): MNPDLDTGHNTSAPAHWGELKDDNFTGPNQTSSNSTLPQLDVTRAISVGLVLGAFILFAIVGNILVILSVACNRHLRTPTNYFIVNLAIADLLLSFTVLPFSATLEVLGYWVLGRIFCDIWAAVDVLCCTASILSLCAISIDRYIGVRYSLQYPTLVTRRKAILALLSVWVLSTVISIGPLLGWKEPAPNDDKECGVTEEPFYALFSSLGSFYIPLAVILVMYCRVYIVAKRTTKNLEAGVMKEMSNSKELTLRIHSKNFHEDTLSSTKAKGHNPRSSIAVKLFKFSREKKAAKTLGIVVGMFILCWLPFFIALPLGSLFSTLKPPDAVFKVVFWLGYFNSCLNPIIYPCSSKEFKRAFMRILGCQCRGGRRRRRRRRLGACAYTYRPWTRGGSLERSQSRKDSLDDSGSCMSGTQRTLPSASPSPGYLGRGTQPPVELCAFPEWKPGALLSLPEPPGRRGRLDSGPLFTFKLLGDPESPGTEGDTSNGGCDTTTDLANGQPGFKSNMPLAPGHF
T1 sequence (P43140 whole entry): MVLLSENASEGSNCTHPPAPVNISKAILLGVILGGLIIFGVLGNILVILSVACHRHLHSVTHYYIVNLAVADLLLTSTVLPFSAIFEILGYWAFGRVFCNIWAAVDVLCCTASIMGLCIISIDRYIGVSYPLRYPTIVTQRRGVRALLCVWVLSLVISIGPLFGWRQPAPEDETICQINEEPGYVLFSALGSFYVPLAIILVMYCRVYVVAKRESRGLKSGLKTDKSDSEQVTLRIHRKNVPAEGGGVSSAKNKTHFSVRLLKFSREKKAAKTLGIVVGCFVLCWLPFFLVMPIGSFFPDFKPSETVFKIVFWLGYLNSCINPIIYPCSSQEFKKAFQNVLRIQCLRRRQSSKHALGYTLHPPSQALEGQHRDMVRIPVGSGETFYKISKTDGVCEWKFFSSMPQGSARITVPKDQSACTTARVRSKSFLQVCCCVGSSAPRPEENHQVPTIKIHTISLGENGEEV
T1 sequence (P23944 whole entry): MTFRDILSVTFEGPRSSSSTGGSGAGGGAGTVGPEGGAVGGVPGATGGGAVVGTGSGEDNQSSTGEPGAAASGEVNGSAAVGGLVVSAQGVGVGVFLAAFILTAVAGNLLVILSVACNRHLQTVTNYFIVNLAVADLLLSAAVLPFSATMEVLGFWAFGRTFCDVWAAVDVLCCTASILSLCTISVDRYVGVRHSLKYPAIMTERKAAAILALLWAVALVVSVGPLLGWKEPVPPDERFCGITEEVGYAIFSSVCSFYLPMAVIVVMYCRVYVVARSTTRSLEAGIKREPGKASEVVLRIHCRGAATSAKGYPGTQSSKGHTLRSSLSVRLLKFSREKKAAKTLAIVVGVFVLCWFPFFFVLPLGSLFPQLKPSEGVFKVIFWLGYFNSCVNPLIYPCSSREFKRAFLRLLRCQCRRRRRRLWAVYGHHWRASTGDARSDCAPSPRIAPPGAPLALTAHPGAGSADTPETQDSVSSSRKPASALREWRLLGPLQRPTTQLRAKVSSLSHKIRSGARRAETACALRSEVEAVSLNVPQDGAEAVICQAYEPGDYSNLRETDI
Test: Displacement of [3H]prazosin from alpha-1 adrenergic receptor in rat cortex

Row | Ki [µM] | SMILES
1 | > 4 | CCOC(=O)[C@@H]1CCCN(CCCC(C)(C)S(=O)(=O)c2ccccc2)C1
2 | > 4 | CC(C)(CCCN1CCCC(c2cnco2)C1)S(=O)(=O)c1ccccc1 (centres undefined)
3 | > 4 | CC(C)(CCCN1CCCC(C(F)(F)F)C1)S(=O)(=O)c1ccccc1 (centres undefined)
4 | 0.54 | CC(C)(CCCN1CCCC(c2ccccc2)C1)S(=O)(=O)c1ccccc1 (centres undefined)
